# Test system: male Wistar rats
# Assay: Comparison with known active ingredients in male Wistar rats under sodium thiopental anaesthesia, rapid i.v. or 5 min infusion
# Assay type: in vivo, rat (male Wistar)
# Protocol: In order to compare the activity of the compounds of the present invention to that of the products of the prior art, various doses of known anti-hypertensive, hypotensive and vasoactive drugs were administered to male Wistar rats under general anaesthesia by sodium thiopental (50 mg/kg, i.p.). The administration was effected through "rapid" i.v. route or through intravenous infusion (inf.) for a time of 5 minutes.
# The dose of each product is referred to the base, and the volumes injected were of 100 mcl in case of i.v. administration and […] total (0.9% sodium chloride solution) in case of infusion. The various parameters were evaluated in the same way as in the preceding experiments.
# [1] = 5 mg/kg, inf., maximum response
smiles,measurement,setting,value
COC(=O)[C@H]1[C@H]2C[C@@H]3c4[nH]c5cc(OC)ccc5c4CCN3C[C@H]2C[C@@H](OC(=O)c2cc(OC)c(OC)c(OC)c2)[C@@H]1OC [Reserpine],Δ AP DIASTOLIC,[1],-24 ± 5 mmHg
same,Δ AP SYSTOLIC,[1],-31 ± 6 mmHg
same,Δ HR,[1],-47 ± 9 beats/min
same,Δ dp/dt,[1],-1580 ± 134 mmHg/sec
same,general effects on the various haemodynamic parameters (in words),rat,"general ""depressive"" effects"

# Reference: patent US5059624A, “Guanidine derivatives having hypotensive activity, composition containing them and process for obtaining them” (Consiglio Nazionale Delle Ricerche, priority 1988, dated 1991)
